In data set [1] the test system is UGTs in human liver microsomes pooled from 150 donors (HLM150). The format is in vitro ADME. Particulars: for Km: read-out: Km for the microsomal reaction, glucuronidation at the C7 hydroxyl group, HLM150.
In a further data set the test system is recombinant UGT1A1. Particulars: read-out: Km for the UGT1A1 reaction, glucuronidation at the C7 hydroxyl group; cited from earlier work.
The test system of the next data set is plasma proteins. Particulars: cited from earlier work.
[2] abbreviates: formation of 7-HOWAR-4-GLUC, DynaFit preferred model, 95 % CI in parentheses.
[3] abbreviates: formation of 7-HOWAR-7-GLUC, DynaFit preferred model, 95 % CI in parentheses.

Where two headings read alike, the source gives them in different places.

Take `CC(=O)C[C@H](c1ccccc1)c1c(O)c2ccc(O)cc2oc1=O` [R-7-HOWAR, R-7-hydroxywarfarin]: in data set [1] (setting [2]), the Vmax1 is reported as 58.0 (49.5–66.1) nmol/min/mg protein and the Vmax2 is reported as 19.0 (16.3–21.4) nmol/min/mg protein. Further, in data set [1] (setting [3]), the Ks is listed as 121 (101–144) μM and the Vmax1 is given as 1090 (1050–1140) nmol/min/mg protein. The Km (in general, the concentration of substrate that gives half-maximal velocity) in data set [1] was determined as 121 µM. Also, in the data set on recombinant UGT1A1, the Km was 130 µM. Further, in the data set on plasma proteins, the “not bound to plasma proteins” value was 4.49%.

As to `CC(=O)C[C@@H](c1ccccc1)c1c(O)c2ccc(O)cc2oc1=O` [S-7-OHWAR, S-7-hydroxywarfarin], the Ks was 110 (83.0–149) μM in data set [1] (setting [2]) and 927 (559–1960) μM in data set [1] (setting [3]). Moreover, the Vmax1 in data set [1] (setting [2]) was 19.7 (17.6–22.4) nmol/min/mg protein; in data set [1] (setting [3]), 1470 (1020–2700) nmol/min/mg protein. The Michaelis constant (Km) in data set [1] was 927 µM; in the data set on recombinant UGT1A1, 230 µM. In addition, the “not bound to plasma proteins” value with plasma proteins is recorded as 4.27%.

The record behind these values is paper PMC4258421 (Archives of biochemistry and biophysics, 2014).
